Molecules are shown by their SMILES.

One may read the IC50 as the concentration needed to halve the response being measured.

The target in one assay is human V1a receptor (Homo sapiens (Human), UniProt P37288). Briefly: Cellular in vitro assay for determining vasopressin receptor activity (V1a, aequorin luminescence). It counts as cell-based. Conditions: for IC50: CHO cell line transfected with human V1a receptor, [Arg8]-vasopressin at EC50 concentration, read-out: IC50 hV1a; for ratio IC50 hV2/hV1a: selectivity, IC50 hV2 divided by IC50 hV1a. Here is the method: (§1) B-1. Cellular In Vitro Assay for Determining Vasopressin Receptor Activity
(§2) The identification of agonists and antagonists of the V1a and V2 vasopressin receptors from humans, rats and dogs as well as the quantification of the activity of the compounds of the invention is carried out using recombinant cell lines. These cell lines originally derive from a hamster's ovary epithelial cell (Chinese Hamster Ovary, CHO K1, ATCC: American Type Culture Collection, Manassas, Va. 20108, USA). The test cell lines constitutively express the human, rat or dog V1a or V2 receptors. In case of the Gαq-coupled V1a receptors, cells are also stably transfected with a modified form of the calcium-sensitive photoproteins aequorin (human and rat V1a) or obe-lin (dog V1a), which, after reconstitution with the cofactor coelenterazine, emit light when there are increases in free calcium concentrations [Rizzuto R, Simpson A W, Brini M, Pozzan T, Nature 358, 325-327 (1992); Illarionov B A, Bondar V S, Illarionova V A, Vysotski E S, Gene 153 (2), 273-274 (1995)]. The resulting vasopressin receptor cells react to stimulation of the recombinantly expressed Via receptors by intracellular release of calcium ions, which can be quantified by the resulting photoprotein luminescence. The Gs-coupled V2 receptors are stably transfected into cell lines expressing the gene for firefly luciferase under control of a CRE-responsible promoter. Activation of V2 receptors induces the activation of the CRE-responsive promoter via cAMP increase, thereby inducing the expression of firefly luciferase. The light emitted by photoproteins of V1a cell lines as well as the light emitted by firefly luciferase of V2 cell lines corresponds to the activation or inhibition of the respective vasopressin receptor. The bioluminescence of the cell lines is detected using a suitable luminometer [Milligan G, Marshall F, Rees S, Trends in Pharmacological Sciences 17, 235-237 (1996)].
Vasopressin V1a Receptor Cell Lines:
On the day before the assay, the cells are plated out in culture medium (DMEM/F12, 2% FCS, 2 mM glutamine, 10 mM HEPES, 5 μg/ml coelenterazine) in 384-well microtiter plates and kept in a cell incubator (96% humidity, 5% v/v CO2, 37° C.). On the day of the assay, test compounds in various concentrations are placed for 10 minutes in the wells of the microtiter plate before the agonist [Arg^8]-vasopressin at EC50 concentration is added. The resulting light signal is measured immediately in a luminometer.
(§3) Table 1A below lists individual IC50 values for the compounds of the invention (including racemic mixtures as well as separated enantiomers) that were obtained from cell lines transfected with the human Via or V2 receptor: […]

Another assay deals with human V2 receptor (Homo sapiens (Human), UniProt P30518). The assay can be described thus: Cellular in vitro assay for determining vasopressin receptor activity (V2, CRE-luciferase). Type of assay: cell-based. Conditions: CHO cell line transfected with human V2 receptor; [Arg8]-vasopressin at EC50 concentration; read-out: IC50 hV2. Here is the method:
as §1, §2
Vasopressin V2 Receptor Cell Lines:
On the day before the assay, the cells are plated out in culture medium (DMEM/F12, 2% FCS, 2 mM glutamine, 10 mM HEPES) in 384-well microtiter plates and kept in a cell incubator (96% humidity, 5% v/v CO2, 37° C.). On the day of the assay, test compounds in various concentrations and the agonist [Arg^8]-vasopressin at EC50 concentration are added together to the wells, and plates are incubated for 3 hours in a cell incubator. Upon addition of the cell lysis reagent Triton™ and the substrate luciferin, luminescence of firefly luciferase is measured in a luminometer.
as §3

Sequence of human V2 receptor (P30518 whole entry): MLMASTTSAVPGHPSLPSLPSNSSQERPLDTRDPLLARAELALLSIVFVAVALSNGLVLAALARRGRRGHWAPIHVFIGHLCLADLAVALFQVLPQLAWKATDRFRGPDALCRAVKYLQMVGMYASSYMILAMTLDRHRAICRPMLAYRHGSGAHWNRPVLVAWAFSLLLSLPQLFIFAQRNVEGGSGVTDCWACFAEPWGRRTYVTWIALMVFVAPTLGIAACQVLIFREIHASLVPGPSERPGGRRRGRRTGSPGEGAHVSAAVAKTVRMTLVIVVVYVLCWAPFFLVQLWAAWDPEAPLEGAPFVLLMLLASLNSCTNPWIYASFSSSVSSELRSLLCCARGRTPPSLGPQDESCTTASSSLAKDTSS
Sequence of human V1a receptor (P37288 whole entry): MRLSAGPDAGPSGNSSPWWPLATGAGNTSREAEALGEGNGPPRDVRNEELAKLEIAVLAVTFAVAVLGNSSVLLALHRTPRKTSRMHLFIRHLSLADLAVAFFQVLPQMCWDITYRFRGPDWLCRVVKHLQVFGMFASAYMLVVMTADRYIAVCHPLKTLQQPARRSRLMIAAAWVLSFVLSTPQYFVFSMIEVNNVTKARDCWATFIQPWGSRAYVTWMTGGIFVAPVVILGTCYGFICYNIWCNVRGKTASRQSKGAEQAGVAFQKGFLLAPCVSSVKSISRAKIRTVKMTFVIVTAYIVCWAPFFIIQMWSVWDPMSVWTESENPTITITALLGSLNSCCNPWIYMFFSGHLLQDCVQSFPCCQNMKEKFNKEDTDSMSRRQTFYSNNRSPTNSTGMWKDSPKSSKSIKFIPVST

With `CCC(=O)NC(Cn1c(-c2ccc(Cl)cc2)nn(Cc2ncn(-c3ncccc3Cl)n2)c1=O)C(F)(F)F` (racemic) [Example 13, N-{3-[3-(4-Chlorophenyl)-1-{[1-(3-chloropyridin-2-yl)-1H-1,2,4-triazol-3-yl]methyl}-5-oxo-1,5-dihydro-4H-1,2,4-triazol-4-yl]-1,1,1-trifluoropropan-2-yl}propanamide], the IC50 amounted to 6.95 nM at human V1a receptor and 260 nM at human V2 receptor. Besides, the “ratio IC50 hV2/hV1a” value at human V1a receptor is 37.4.

Consider `O=C(NC(Cn1c(-c2ccc(Cl)cc2)nn(Cc2ncn(-c3ncccc3Cl)n2)c1=O)C(F)(F)F)C1CC1` (racemic) [Example 14, N-{3-[3-(4-Chlorophenyl)-1-{[1-(3-chloropyridin-2-yl)-1H-1,2,4-triazol-3-yl]methyl}-5-oxo-1,5-dihydro-4H-1,2,4-triazol-4-yl]-1,1,1-trifluoropropan-2-yl}cyclopropanecarboxamide], for which, on human V1a receptor, the IC50 was found to be 12.4 nM and the “ratio IC50 hV2/hV1a” value stood at 17.7. At human V2 receptor, the IC50 amounted to 220 nM.

In the case of `O=C(NC(Cn1c(-c2ccc(Cl)cc2)nn(Cc2ncn(-c3ncccc3Cl)n2)c1=O)C(F)(F)F)C1CC(F)(F)C1` (racemic) [Example 15, N-{3-[3-(4-Chlorophenyl)-1-{[1-(3-chloropyridin-2-yl)-1H-1,2,4-triazol-3-yl]methyl}-5-oxo-1,5-dihydro-4H-1,2,4-triazol-4-yl]-1,1,1-trifluoropropan-2-yl}-3,3-difluorocyclobutanecarboxamide], on human V1a receptor, the IC50 is 2.05 nM and the “ratio IC50 hV2/hV1a” value is 38.3. The IC50 at human V2 receptor was determined as 78.5 nM.

Turning to `CC(=O)OC(C)(C)C(=O)NC(Cn1c(-c2ccc(Cl)cc2)nn(Cc2ncn(-c3ncccc3Cl)n2)c1=O)C(F)(F)F` (racemic) [Example 16, 1-({3-[3-(4-Chlorophenyl)-1-{[1-(3-chloropyridin-2-yl)-1H-1,2,4-triazol-3-yl]methyl}-5-oxo-1,5-dihydro-4H-1,2,4-triazol-4-yl]-1,1,1-trifluoropropan-2-yl}amino)-2-methyl-1-oxopropan-2-yl acetate], the IC50 at human V1a receptor is 5.05 nM; on human V2 receptor, 140 nM. Further, the “ratio IC50 hV2/hV1a” value at human V1a receptor was 27.7.

On to `CC(C)(O)C(=O)NC(Cn1c(-c2ccc(Cl)cc2)nn(Cc2ncn(-c3ncccc3Cl)n2)c1=O)C(F)(F)F` (racemic) [Example 17, N-{3-[3-(4-Chlorophenyl)-1-{[1-(3-chloropyridin-2-yl)-1H-1,2,4-triazol-3-yl]methyl}-5-oxo-1,5-dihydro-4H-1,2,4-triazol-4-yl]-1,1,1-trifluoropropan-2-yl}-2-hydroxy-2-methylpropanamide], for which, at human V1a receptor, the IC50 was determined as 9.55 nM and the “ratio IC50 hV2/hV1a” value amounted to 29.3. Also, the IC50 on human V2 receptor amounted to 280 nM.

Take `CS(=O)(=O)NCC(=O)NC(Cn1c(-c2ccc(Cl)cc2)nn(Cc2ncn(-c3ncccc3Cl)n2)c1=O)C(F)(F)F` (racemic) [Example 19, N-{3-[3-(4-Chlorophenyl)-1-{[1-(3-chloropyridin-2-yl)-1H-1,2,4-triazol-3-yl]methyl}-5-oxo-1,5-dihydro-4H-1,2,4-triazol-4-yl]-1,1,1-trifluoropropan-2-yl}-N^2-(methylsulfonyl)glycinamide]: at human V1a receptor, the IC50 was found to be 2.2 nM and the “ratio IC50 hV2/hV1a” value worked out at 46.1. The IC50 at human V2 receptor amounted to 102 nM.

For the molecule `O=C(CN1CCOC1=O)NC(Cn1c(-c2ccc(Cl)cc2)nn(Cc2ncn(-c3ncccc3Cl)n2)c1=O)C(F)(F)F` (racemic) [Example 20, N-{3-[3-(4-Chlorophenyl)-1-{[1-(3-chloropyridin-2-yl)-1H-1,2,4-triazol-3-yl]methyl}-5-oxo-1,5-dihydro-4H-1,2,4-triazol-4-yl]-1,1,1-trifluoropropan-2-yl}-2-(2-oxo-1,3-oxazolidin-3-yl)acetamide], the IC50 on human V1a receptor is 8.9 nM; at human V2 receptor, 520 nM. In addition, the “ratio IC50 hV2/hV1a” value at human V1a receptor worked out at 58.4.

Take `N#CC1(C(=O)NC(Cn2c(-c3ccc(Cl)cc3)nn(Cc3ncn(-c4ncccc4Cl)n3)c2=O)C(F)(F)F)CC1` (racemic) [Example 21]: on human V1a receptor, the IC50 amounted to 5.95 nM and the “ratio IC50 hV2/hV1a” value turned out to be 47.5. Moreover, the IC50 at human V2 receptor was determined as 283 nM.

Regarding `O=C(NC(Cn1c(-c2ccc(Cl)cc2)nn(Cc2ncn(-c3ncccc3Cl)n2)c1=O)C(F)(F)F)C1(O)CC1` (racemic) [Example 22, N-{3-[3-(4-Chlorophenyl)-1-{[1-(3-chloropyridin-2-yl)-1H-1,2,4-triazol-3-yl]methyl}-5-oxo-1,5-dihydro-4H-1,2,4-triazol-4-yl]-1,1,1-trifluoropropan-2-yl}-1-hydroxycyclopropanecarboxamide], the IC50 on human V1a receptor was 4.05 nM; at human V2 receptor, 150 nM. Besides, at human V1a receptor, the “ratio IC50 hV2/hV1a” value is 37.0.

With `O=C(/C=C/C(F)(F)F)NC(Cn1c(-c2ccc(Cl)cc2)nn(Cc2ncn(-c3ncccc3Cl)n2)c1=O)C(F)(F)F` (racemic) [Example 25, (2E)-N-{3-[3-(4-Chlorophenyl)-1-{[1-(3-chloropyridin-2-yl)-1H-1,2,4-triazol-3-yl]methyl}-5-oxo-1,5-dihydro-4H-1,2,4-triazol-4-yl]-1,1,1-trifluoropropan-2-yl}-4,4,4-trifluorobut-2-enamide], at human V1a receptor, the IC50 worked out at 1.75 nM and the “ratio IC50 hV2/hV1a” value is 98.6. Moreover, at human V2 receptor, the IC50 came out at 172 nM.

Consider `CC(C)(C)OC(=O)NC1(C(=O)NC(Cn2c(-c3ccc(Cl)cc3)nn(Cc3ncn(-c4ncccc4Cl)n3)c2=O)C(F)(F)F)CC1` (racemic) [Example 26, tert-Butyl [1-({3-[3-(4-chlorophenyl)-1-{[1-(3-chloropyridin-2-yl)-1H-1,2,4-triazol-3-yl]methyl}-5-oxo-1,5-dihydro-4H-1,2,4-triazol-4-yl]-1,1,1-trifluoropropan-2-yl}carbamoyl)cyclopropyl]-carbamate], for which the IC50 on human V1a receptor stood at 9.15 nM; on human V2 receptor it was 82.5 nM. Moreover, the “ratio IC50 hV2/hV1a” value on human V1a receptor stood at 9.0.

In the case of `NC1(C(=O)NC(Cn2c(-c3ccc(Cl)cc3)nn(Cc3ncn(-c4ncccc4Cl)n3)c2=O)C(F)(F)F)CC1` (racemic) [Example 27, 1-Amino-N-{3-[3-(4-chlorophenyl)-1-{[1-(3-chloropyridin-2-yl)-1H-1,2,4-triazol-3-yl]methyl}-5-oxo-1,5-dihydro-4H-1,2,4-triazol-4-yl]-1,1,1-trifluoropropan-2-yl}cyclopropanecarboxamide], the concentration for half-maximal inhibition (IC50) came out at 215 nM at human V1a receptor and 1900 nM on human V2 receptor. The “ratio IC50 hV2/hV1a” value on human V1a receptor was found to be 8.8.

For the molecule `NC1(C(=O)NC(Cn2c(-c3ccc(Cl)cc3)nn(Cc3ncn(-c4ncccc4Cl)n3)c2=O)C(F)(F)F)CCC1` (racemic) [Example 29, 1-Amino-N-{3-[3-(4-chlorophenyl)-1-{[1-(3-chloropyridin-2-yl)-1H-1,2,4-triazol-3-yl]methyl}-5-oxo-1,5-dihydro-4H-1,2,4-triazol-4-yl]-1,1,1-trifluoropropan-2-yl}cyclobutanecarboxamide], at human V1a receptor, the IC50 stood at 5.65 nM and the “ratio IC50 hV2/hV1a” value was determined as 36.0. Also, on human V2 receptor, the half-inhibitory concentration (IC50) is 203 nM.

`O=C(CC(F)=C(F)F)NC(Cn1c(-c2ccc(Cl)cc2)nn(Cc2ncn(-c3ncccc3Cl)n2)c1=O)C(F)(F)F` (racemic) [Example 31, N-{3-[3-(4-Chlorophenyl)-1-{[1-(3-chloropyridin-2-yl)-1H-1,2,4-triazol-3-yl]methyl}-5-oxo-1,5-dihydro-4H-1,2,4-triazol-4-yl]-1,1,1-trifluoropropan-2-yl}-3,4,4-trifluorobut-3-enamide]: on human V1a receptor, the IC50 worked out at 3.4 nM and the “ratio IC50 hV2/hV1a” value came to 32.1. Further, the IC50 at human V2 receptor amounted to 109 nM.

These data come from US11149023B2, “Substituted triazole derivatives and uses thereof” (Bayer Pharma Aktiengesellschaft, priority 2017, dated 2021).
